Reference: ChEMBL document CHEMBL1137802, “Specific antioxidant activity of caffeoyl derivatives and other natural phenolic compounds: LDL protection against oxidation and decrease in the proinflammatory lysophosphatidylcholine production” (J Nat Prod, 2001)

Legend:
Type in all cases: functional, cell-free
[1] = Antioxidant activity against Cu2+-induced lipid peroxidation in human plasma LDL assessed as conjugated diene formation at 5 umol/L preincubated for 1 hr before Cu2+ challenge measured after 210 mins
[2] = Antioxidant activity against Cu2+-induced lipid peroxidation in human plasma LDL assessed as vitamin E consumption at 20 umol/L preincubated for 1 hr before Cu2+ challenge measured after 45 mins
[3] = Antioxidant activity against Cu2+-induced lipid peroxidation in human plasma LDL assessed as maximal compound concentration at 10 umol/L preincubated for 1 hr before Cu2+ challenge measured after 150 mins relative to compound present at 0 min
[4] = Antioxidant activity against Cu2+-induced lipid peroxidation in human plasma LDL assessed as vitamin E consumption at 20 umol/L preincubated for 1 hr before Cu2+ challenge measured after 90 mins
[5] = Antioxidant activity against Cu2+-induced lipid peroxidation in human plasma LDL assessed as maximal compound concentration at 10 umol/L preincubated for 1 hr before Cu2+ challenge measured after 210 mins relative to compound present at 0 min
[6] = Antioxidant activity against Cu2+-induced lipid peroxidation in human plasma LDL assessed as lysophosphatidylcholine formation at 5 umol/L preincubated for 1 hr before Cu2+ challenge measured after 90 mins
[7] = Antioxidant activity against Cu2+-induced lipid peroxidation in human plasma LDL assessed as conjugated diene formation at 5 umol/L preincubated for 1 hr before Cu2+ challenge measured after 60 mins
[8] = Antioxidant activity against Cu2+-induced lipid peroxidation in human plasma LDL assessed as conjugated diene formation at 5 umol/L preincubated for 1 hr before Cu2+ challenge measured after 150 mins
[9] = Antioxidant activity against Cu2+-induced lipid peroxidation in human plasma LDL assessed as lysophosphatidylcholine formation at 20 umol/L preincubated for 1 hr before Cu2+ challenge measured after 270 mins

SMILES: CC(C)(Sc1cc(C(C)(C)C)c(O)c(C(C)(C)C)c1)Sc1cc(C(C)(C)C)c(O)c(C(C)(C)C)c1
- Activity [1]: 80.8%
- Activity [2]: 7.5%
- Activity [3]: 19.8%
- Activity [4]: 0%
- Activity [5]: 21.6%
- Activity [6]: 4.1%
- Activity [7]: 4.1%
- Activity [8]: 78.3%
- Activity [9]: 1.5%
